Article PMC8389922, “First-in-Class Cyclic Temporin L Analogue: Design, Synthesis, and Antimicrobial Assessment” (Journal of Medicinal Chemistry, 2021)
Converted amounts (≈) assume the structure as drawn. Bridge positions count the residues as written; N and C are the ends. Square brackets hold non-standard residues; d marks the D form. Peptide text beside a SMILES is read from it.

Key:
S. aureus ATCC 25923 = format: cell-based, Staphylococcus aureus
Summary of the method: (§1)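 MICs were determined by broth microdilution, with bacteria at a final 1 × 10^6 CFU/mL and peptides tested from 100 to 0.78 μM.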

B. megaterium Bm11 = format: cell-based, Bacillus megaterium
Summary of the method: as §1

[1] = tested on: HaCaT cells (human immortalized keratinocytes); test: Cytotoxicity, MTT assay; format: cell-based
Method: In particular, the cytotoxicity was evaluated by the 3-(4,5-dimethylthiazol-2-yl)-2,5-diphenyltetrazolium bromide (MTT) assay and is expressed as the percentage of viability of peptide-treated cells compared to that of untreated control cells. As expected, after 2 and 24 h treatments, the cell viability decreased in a concentration-dependent manner for all peptides (Figure 2).
Figure 2 Viability of peptide-treated HaCaT cells evaluated by MTT assay at 2 h (a) and 24 h (b). All data are expressed as a percentage with respect to the untreated control cells and are the mean of three independent experiments ± standard error of the mean (SEM).
The human immortalized keratinocytes HaCaT cells (AddexBio, San Diego, CA) were cultured in Dulbecco’s modified Eagle’s medium containing 4 mM glutamine (DMEMg), supplemented with 10% heat-inactivated fetal bovine serum (FBS) and 0.1 mg/mL of penicillin and streptomycin, at 37 °C and 5% CO2, in 25 or 75 cm^2 flasks.
The quantification of cell viability was performed by the in vitro MTT [3-(4,5-dimethylthiazol-2-yl)-2,5-diphenyltetrazolium bromide] assay, as previously reported,[77] measuring the conversion of the soluble yellow dye MTT to insoluble purple formazan by mitochondrial dehydrogenases. More precisely, 4 × 10^4 HaCaT cells, suspended in DMEMg supplemented with 2% FBS without antibiotics, were plated in each well of the 96-well plate. After overnight incubation at 37 °C and 5% CO2, the medium of each well was replaced by DMEMg containing the peptide at different concentrations, as indicated. Controls were HaCaT cells not treated with the peptide. After 2 and 24 h of incubation at 37 °C and 5% CO2, the medium was discarded; 0.5 mg/mL of MTT in Hank’s buffer was added to each well, and the plate was incubated for further 4 h. Acidified isopropanol was then added to dissolve formazan crystals, and the absorbance of each well at 570 nm was measured using a microplate reader (Infinite M200; Tecan, Salzburg, Austria). The purple color intensity is directly proportional to the number of viable cells, which was expressed as a percentage compared to that of untreated control cells (100%).

[2] = CD spectroscopy, secondary structure content (DichroWeb); format: physicochemical; details: for helix-1 (regular α-helix) / helix-2 (distorted α-helix) / random / β-strand-1 (regular β-strand) / β-strand-2 (distorted β-strand) / β-turn: peptide 50 μM, 25 °C
Method: The secondary structures of the linear peptide 9 and its stapled analogues 12, 17, and 24–26 were explored by circular dichroism (CD). CD spectroscopy studies were performed in water, and SDS or DPC micelles (20 mM) were used as mimics of the bacterial or mammalian membranes, respectively.[60]
The secondary structure content was predicted based on the CD spectra from 190 to 260 nm using the online server for protein secondary structure analyses, DichroWeb.[61] […] The hydrocarbon-bridged peptide 25 was slightly helical and structured in water, with weak ellipticity at 220 nm. Peptide 25 contains ∼13% regular helix and ∼10% distorted helix, according to the DichroWeb prediction.
All spectra were measured in the 260–190 nm spectral range, 1 nm bandwidth, 4 accumulations, and 100 nm/min scanning speed.[60] Each peptide was dissolved in water to prepare a 1 mM peptide stock solution. The CD spectra were performed in water, in SDS (20 mM) and in DPC (20 mM) using a peptide concentration of 50 μM. The secondary structure content of the peptides was predicted using the online server for protein secondary structure analyses DichroWeb.[61] Input and output units and the wavelength step were θ (mdeg) and 1.0 nm, respectively. The algorithm used was CONTIN-LL,[83] and reference database was set-7. When we have NRMSD > 0.100, we used the CDSSTR method.[83]

[3] = CD in DPC micelles (20 mM), DichroWeb
[4] = CD in SDS micelles (20 mM), DichroWeb
[5] = CD in water, DichroWeb (CONTIN-LL, set-7; CDSSTR if NRMSD > 0.100)

Row | SMILES | MIC S. aureus ATCC 25923 (S. aureus ATCC 25923) [µM] | MIC B. megaterium Bm11 (B. megaterium Bm11) [µM] | helix-1 (regular α-helix) [2, 3] [%] | helix-2 (distorted α-helix) [2, 3] [%] | random [2, 3] [%] | β-strand-1 (regular β-strand) [2, 3] [%] | β-strand-2 (distorted β-strand) [2, 3] [%] | β-turn [2, 3] [%] | helix-1 (regular α-helix) [2, 4] [%] | helix-2 (distorted α-helix) [2, 4] [%] | random [2, 4] [%] | β-strand-1 (regular β-strand) [2, 4] [%] | β-strand-2 (distorted β-strand) [2, 4] [%] | β-turn [2, 4] [%] | helix-2 (distorted α-helix) ([2]; CD in water, DichroWeb) [%] | random ([2]; CD in water, DichroWeb) [%] | β-strand-1 (regular β-strand) ([2]; CD in water, DichroWeb) [%] | β-strand-2 (distorted β-strand) ([2]; CD in water, DichroWeb) [%] | β-turn ([2]; CD in water, DichroWeb) [%] | helix-1 (regular α-helix) [2, 5] [%] | further results
1 | CC[C@H](C)[C@H](NC(=O)[C@H](CCCNC(=N)N)NC(=O)[C@@H]1CCCCn2cc(nn2)C[C@H](NC(=O)[C@H](Cc2ccccc2)NC(=O)[C@H](Cc2c[nH]c3ccccc23)NC(=O)[C@@H]2CCCN2C(=O)[C@@H](NC(=O)[C@@H](N)Cc2ccccc2)C(C)C)C(=O)N[C@@H](CCCCN)C(=O)N[C@@H](Cc2ccccc2)C(=O)NC(CC(C)C)C(=O)N1)C(=O)N[C@@H](CC(C)C)C(N)=O (stereo in doubt) [compound 17] | 3.12 (≈ 5.35 µg/mL) | 1.56 (≈ 2.67 µg/mL) | 38 | 18 | 19 | 9 | 7 | 10 | 32 | 16 | 16 | 13 | 7 | 15 | 4 | 49 | 19 | 9 | 16 | 2 | HaCaT cell viability ([1]; 2 h treatment, 25 μM, vs untreated control, mean of three independent experiments): 60–70%; HaCaT cell viability ([1]; 2 h treatment, 50 μM, vs untreated control, mean of three independent experiments): less than 40%; HaCaT cell viability ([1]; 24 h treatment (sentence continues from 50 μM), vs untreated control): less than 20%
2 | CC[C@H](C)[C@H](NC(=O)[C@H](CCCNC(=N)N)NC(=O)[C@@H]1CCC(=O)NCCCC[C@H](NC(=O)[C@H](Cc2ccccc2)NC(=O)[C@H](Cc2c[nH]c3ccccc23)NC(=O)[C@@H]2CCCN2C(=O)[C@@H](NC(=O)[C@@H](N)Cc2ccccc2)C(C)C)C(=O)N[C@@H](CCCCN)C(=O)N[C@@H](Cc2ccccc2)C(=O)N[C@H](CC(C)C)C(=O)N1)C(=O)N[C@@H](CC(C)C)C(N)=O [compound 12] (H-FVPWFKKF[dL]ERIL-NH2; lactam 6-10) | 3.12 (≈ 5.32 µg/mL) | 1.56 (≈ 2.66 µg/mL) | 54 | 21 | 13 | 1 | 4 | 7 | 58 | 24 | 5 | 0 | 3 | 10 | 2 | 55 | 18 | 8 | 15 | 0 | HaCaT cell viability ([1]; 25 μM, same profile after either 2 or 24 h): 94%; HaCaT cell viability ([1]; 50 μM, same profile after either 2 or 24 h): 60%; helix percentage (total) in SDS solution ([2]; CD in SDS micelles (20 mM), DichroWeb, regular plus distorted helix): about 80%
